In patent publication US20210269479A1, “USE OF CY[…] FOR TREATING CANCER” (Hepion Pharmaceuticals, Inc., priority 2020, published 2021):

System: human precision cut liver slices (PCLS)
Test: RNA-Seq of PCLS, Nonstimulation Protocol (Non-stimulated + CRV vs Non-stimulated + Vehicle)
Format: cell-based
Method: PCLS were obtained from 5 human donors who underwent resection of liver cancer. Replicate slices were collected from healthy margins of the resections and cultured for 4 or 6 days depending on the experimental protocol. In the Nonstimulation Protocol slices were cultured for 6 days and treated for the entire period with DMSO vehicle or 5 μM CRV431. In the Stimulation Protocol slices were rested for 1 day and then administered the cytokines, TGFβ and PDGF-BB, for 3 days to stimulate inflammation and fibrosis. DMSO vehicle, CRV431 (1 and 5 μM), Alk5i (10 μM), obeticholic acid (5 μM), elafibranor (5 μM), resmetirom (5 μM), and Aramchol (5 μM) were administered individually as drug treatments in the Stimulation Protocol concurrent with TGFβ+PDGF-BB. Culture medium treatments were replaced daily.
(d) Gene expression by RNA-Seq. RNA sequencing of the complete transcriptome (30 million reads per sample) was conducted on vehicle and 5 μM CRV431 treatment groups from 3 donors both from the Nonstimulation and Stimulation Protocols. Data were analyzed by bioinformatics software programs to identify genes that were differentially expressed between vehicle and CRV431 treatments.
For the evaluation done for (d), 12 samples corresponding to 3 different donor slides which underwent 4 different treatments were studied. the comparisons carried out in this analysis are: (1) TGFb/PDGF+CRV vs TGFb/PDGF+Vehicle (V), and (2) Non-stimulated+CRV vs Non-stimulated+Vehicle.
Heatmaps were generated by plotting significant differently expressed genes for the comparison Non-stimulated+CRV and Non-stimulated+Vehicle (p-adjust<0.05, log fold change>0.5). First, the heatmap with the samples grouped by group (FIG. 7A) is shown in order to observe the different expression pattern present within the group (blue=vehicle; red=CRV). Then, the same significant genes arweree plotted into a heatmap (FIG. 7B), but the samples are now plotted grouped by donor in order to observe the differences between donors (blue=vehicle; red=CRV).
Significant differently expressed genes that were identified in the comparison Non-stimulated+CRV and Non-stimulated+Vehicle ([…], log fold change>0.5) are provided in Table 3. The fold changes shown are relative to the treatment CRV.
Nonstimulated+CRV431 vs Nonstimulated+Vehicle were then compared by donor. As shown in the PCA, there was a strong effect of the donor. Therefore, the analysis was repeated as in the previous comparison. […] In other words, there were at least 300 copies more in the treatment CRV than in the vehicle. After doing this selection individually for each donor, a venn diagram was plotted showing the overlapping between all three donors. […] So, there are at least 300 copies less in the treated group compared to the vehicle. After doing the selection individually for each donor, a venn diagram was plotted showing the overlapping between all three donors.

[1] = Non-stimulated + CRV vs Non-stimulated + Vehicle, 5 μM
[2] = absence of TGFβ+PDGF-BB, all donors

SMILES: CC[C@@H]1NC(=O)[C@H]([C@H](O)[C@H](C)CCCCCCNC(C)=O)N(C)C(=O)[C@H](C(C)C)N(C)C(=O)[C@H](CC(C)C)N(C)C(=O)[C@H](CC(C)C)N(C)C(=O)[C@@H](C)NC(=O)[C@H](C)NC(=O)[C@H](CC(C)C)N(C)C(=O)[C@H](C(C)C)NC(=O)[C@H](CC(C)C)N(C)C(=O)[C@@H](C)N(C)C1=O [CRV431]
- log2FoldChange, gene AC099668.1 [1]: 1.056
- log2FoldChange, gene ACOT9 [1]: 0.543
- log2FoldChange, gene ADGRD1 [1]: −1.126
- log2FoldChange, gene AFG1L [1]: 1.327
- log2FoldChange, gene AGT [1]: −0.627
- log2FoldChange, gene AKAP10 [1]: −1.249
- log2FoldChange, gene ALPK3 [1]: −0.621
- log2FoldChange, gene AP000347.1 [1]: 1.809
- log2FoldChange, gene AP003119.3 [1]: −0.67
- log2FoldChange, gene APBA1 [1]: −1.158
- log2FoldChange, gene AREG [1]: 1.034
- log2FoldChange, gene ARVCF [1]: −0.609
- log2FoldChange, gene C4B [1]: −0.506
- log2FoldChange, gene CACUL1 [1]: −0.94
- log2FoldChange, gene CCDC149 [1]: 0.76
- log2FoldChange, gene CCNK [1]: 0.545
- log2FoldChange, gene CD5L [1]: 1.675
- log2FoldChange, gene CD180 [1]: 1.051
- log2FoldChange, gene CDH11 [1]: −0.915
- log2FoldChange, gene COL27A1 [1]: −0.545
- log2FoldChange, gene CXCL5 [1]: 0.663
- log2FoldChange, gene CXCL12 [1]: 0.623
- log2FoldChange, gene CYP3A4 [1]: −2.313
- log2FoldChange, gene CYP24A1 [1]: −1.499
- log2FoldChange, gene DAAM2 [1]: 1.498
- log2FoldChange, gene DANCR [1]: 0.693
- log2FoldChange, gene DDX60 [1]: −0.739
- log2FoldChange, gene DGKD [1]: −0.85
- log2FoldChange, gene DKK1 [1]: 1.939
- log2FoldChange, gene DNAJB9 [1]: 0.721
- log2FoldChange, gene DUS3L [1]: 0.745
- log2FoldChange, gene ESM1 [1]: −1.157
- log2FoldChange, gene FANCI [1]: −1.319
- log2FoldChange, gene FSTL1 [1]: −0.595
- log2FoldChange, gene GDPD5 [1]: −0.606
- log2FoldChange, gene GEM [1]: −0.975
- log2FoldChange, gene GMPPA [1]: 0.768
- log2FoldChange, gene GMPPB [1]: 0.715
- log2FoldChange, gene GOLGA8A [1]: −0.669
- log2FoldChange, gene GYG1 [1]: 0.94
- log2FoldChange, gene HID1 [1]: 0.716
- log2FoldChange, gene HLA-F [1]: −0.727
- log2FoldChange, gene HM13 [1]: 0.528
- log2FoldChange, gene HOOK1 [1]: −0.998
- log2FoldChange, gene IFI6 [1]: −1.273
- log2FoldChange, gene IFI44L [1]: −2.254
- log2FoldChange, gene IFIT2 [1]: −0.812
- log2FoldChange, gene ISLR [1]: −0.815
- log2FoldChange, gene KAT14 [1]: 0.874
- log2FoldChange, gene KIAA0513 [1]: −0.98
- log2FoldChange, gene KRT7 [1]: 0.563
- log2FoldChange, gene KRT81 [1]: 1.137
- log2FoldChange, gene L3MBTL1 [1]: −2.03
- log2FoldChange, gene LGALS3BP [1]: −0.556
- log2FoldChange, gene LILRB4 [1]: 0.909
- log2FoldChange, gene LILRB5 [1]: 1.075
- log2FoldChange, gene MANF [1]: 0.682
- log2FoldChange, gene MEG3 [1]: −0.682
- log2FoldChange, gene MIR194-2HG [1]: −2.973
- log2FoldChange, gene MLLT10 [1]: −1.19
- log2FoldChange, gene MPEG1 [1]: 0.584
- log2FoldChange, gene MS4A4A [1]: 0.735
- log2FoldChange, gene MT-CO1 [1]: −1.083
- log2FoldChange, gene MTCO1P12 [1]: −1.183
- log2FoldChange, gene NCOA3 [1]: −1.438
- log2FoldChange, gene NOTCH3 [1]: −0.564
- log2FoldChange, gene NREP [1]: −0.638
- log2FoldChange, gene NUCB2 [1]: 0.851
- log2FoldChange, gene NUGGC [1]: 1.136
- log2FoldChange, gene NUMA1 [1]: −0.537
- log2FoldChange, gene PALM2-AKAP2 [1]: −1.035
- log2FoldChange, gene PAN2 [1]: 0.742
- log2FoldChange, gene PDE4C [1]: −0.669
- log2FoldChange, gene PDZD2 [1]: −1.468
- log2FoldChange, gene PEG10 [1]: 1.463
- log2FoldChange, gene PFKFB3 [1]: −0.545
- log2FoldChange, gene PGM3 [1]: 0.751
- log2FoldChange, gene PLTP [1]: −0.584
- log2FoldChange, gene PLXNA2 [1]: 1.719
- log2FoldChange, gene POU2F2 [1]: 2.856
- log2FoldChange, gene R3HDM2 [1]: −0.678
- log2FoldChange, gene RAD51D [1]: 1.387
- log2FoldChange, gene RARRES2 [1]: −0.766
- log2FoldChange, gene RFX1 [1]: −1.495
- log2FoldChange, gene SCRIB [1]: 0.661
- log2FoldChange, gene SEC11C [1]: 0.844
- log2FoldChange, gene SEC24D [1]: 0.58
- log2FoldChange, gene SEC61B [1]: 0.602
- log2FoldChange, gene SELL [1]: 2.035
- log2FoldChange, gene SERPINB2 [1]: 1.255
- log2FoldChange, gene SIPA1L3 [1]: −0.652
- log2FoldChange, gene SKI [1]: −0.931
- log2FoldChange, gene SLC2A1 [1]: −0.635
- log2FoldChange, gene SLC29A1 [1]: −0.53
- log2FoldChange, gene SNHG3 [1]: 0.665
- log2FoldChange, gene SOWAHC [1]: −0.601
- log2FoldChange, gene SPCS3 [1]: 0.715
- log2FoldChange, gene SRGAP2B [1]: −0.729
- log2FoldChange, gene SSR4 [1]: 0.564
- log2FoldChange, gene STX16 [1]: 0.577
- log2FoldChange, gene SYNGAP1 [1]: −1.718
- log2FoldChange, gene SYNRG [1]: −0.74
- log2FoldChange, gene TMEM154 [1]: −1.351
- log2FoldChange, gene TNFSF14 [1]: −0.681
- log2FoldChange, gene TRPV6 [1]: 0.83
- log2FoldChange, gene TTLL3 [1]: −0.579
- log2FoldChange, gene UHRF2 [1]: −0.778
- log2FoldChange, gene UNKL [1]: −0.916
- log2FoldChange, gene WNK1 [1]: −0.698
- log2FoldChange, gene XAF1 [1]: −0.725
- fold change in RNA, DKK1 [2]: +3.8 fold
- fold change in RNA, ESM1 [2]: −2.2 fold
- fold change in RNA, IFI44L [2]: −4.8 fold
- fold change in RNA, NCOA3 [2]: −2.7 fold
- fold change in RNA, mIR-194-2 [2]: −7.9 fold
